Publication PMC3006138, “Fexinidazole – A New Oral Nitroimidazole Drug Candidate Entering Clinical Development for the Treatment of Sleeping Sickness” (PLoS Neglected Tropical Diseases, 2010)
Like-named read-outs stand apart in the source and are kept apart here.

Legend:
[1] = Rat 28-day toxicokinetics; assay type: in vivo; conditions: plasma, po; for AUC: read-out: AUC within 24 hours post dosing; for half-life: read-out: apparent terminal half-life (converted)
Method: In the rat repeated-dose toxicokinetic study, fexinidazole was administered orally by gavage once a day for 28 consecutive days to ten or fifteen Crl:CD (SD)IGS BR rats/sex/group at doses of 50, 200, or 800 mg/kg/day. A control group received the vehicle alone (5% Tween 80/0.5% methocel). Ten animals/sex/group were sacrificed at the end of the treatment period on day 29 or 30 of study. The remaining 5 animals/sex/group in the control and high-dose groups were sacrificed on day 43 at the end of a 2-weeks observation period. Systemic exposure to fexinidazole and its sulfoxide and sulfone metabolites was evaluated in three additional animals/sex/group. Samples were taken at predose, and 30 min, 1, 2, 4, 8 and 24 h after dosing on days 1, 14, and 28, and in addition at 48 and 72 h after treatment on day 28.
Toxicokinetic Report for the study No. 0504-2007
SD Standard deviation of the mean […]
t1/2,z Terminal half-life tmax Time to peak plasma concentration
ULOQ Upper limit of quantification
The study was conducted according to the study protocol and related amendment.
Fexinidazole was orally given by gavage once a day for 28 days to male and female Sprague Dawley rats according to the following scheme
Fexinidazole was suspended with 5% Tween 80 in 0.5% Methyl cellulose 400 cP.
6.2. Sample Collection and Handling
Blood samples (about 0.25 mL/sampling time) were withdrawn from retro-orbital sinus plexus under isofluorane anesthesia and put in heparinized plastic tubes kept on a ice-water bath, then centrifuged for 10 min at 1200g at +4°C and two aliquots of about 50 μL of plasma were stored in a freezer at -80°C until analysis. Blood was taken from three rats/gender/dose on Days 1 and 14 at pre-dose and 0.5, 1, 2, 4, 8 and 24 hours after dosing, on Day 28 at pre-dose and 1, 2, 4, 8, 24, 48 and 72 hours after dosing. After the administration of the vehicle, the samples were taken from three rats/gender at pre-dose and […]
6.3. Bioanalytical Method
Rat plasma concentrations of Fexinidazole and its sulfoxide (M1) and sulfone (M2) metabolites were determined by a validated LC/MS/MS method. The calibration range for the assay was 5-1000 ng/mL for Fexinidazole and 25-25000 ng/mL for M1 and M2.
Study samples containing analytes concentrations above the upper limit of quantitation were diluted with blank matrix prior to analysis.
6.4. Pharmacokinetic Calculations
Pharmacokinetic evaluation was carried out using non-compartmental approach with the aid […]
Excel spreadsheet (Microsoft Inc., Seattle, USA). […]
In the calculations, the undetectable concentrations between detectable ones were ignored.
After each dose level, Cmax and tmax of Fexinidazole and sulfoxide and sulfone metabolites […]
linear trapezoidal rule up to the last detectable concentration. On Day 28, since the blood […]
24 hours post dosing was calculated and denoted AUC0-24. This AUC was calculated in order to compare AUC values on Day 28 to those on Day 1 and Day 14. On Day 28, in addition, the half-life of the terminal phase, t1/2,z, was determined by linear regression analysis of the natural-log concentration vs. time curve, where t1/2,z = ln(2)/slope of the regression line.
Fexinidazole and metabolites accumulation ratios, based on Cmax (RA,Cmax), AUC0-24 (RA,AUC0-24) and AUC0-t(last) (RA,AUC0-t(last)), were calculated as the ratio between the parameters obtained on Day 14 and Day 28 to the corresponding one at Day 1. […]
pharmacokinetic parameters of each compound sorted by dose, gender and day of dosing. […]
compound are reported in Tables 1 and 2, whilst individual and mean parameters of each […]
Individual and mean (±SD, CV%) plasma
2A1 - 19A1 of Appendix 1. Individual plasma concentrations of Fexinidazole and both metabolites are plot in Figures 1 - 9, whilst the mean concentrations are plot in Figures 10 - 15. Mean normalized Cmax and AUC0-t(last) values of Fexinidazole and metabolites vs. dose are plot in Figures 16 - 21.
In-study bioanalytical validation data are reported in Appendix 2. All analytical batches met […]

hERG = hERG (Homo sapiens, UniProt Q12809); assay: hERG tail current, patch clamp in HEK 293 cells; conditions: for Residual Current (% of control): 37°C
Method: Formulation and stored at 2-4°C when not in use. When in use Tyrode solution was stored at
CaCl2, 1 MgCl2, 5.5 glucose and 5 HEPES. During the patch-clamp experiments the Tyrode
4.2.4. Storage and Formulation of Internal Solution
The internal solution was stored frozen at – 20°C until the day of use. The composition of
the internal solution was (in mM): 110 K+- aspartate, 23 KCl, 3 MgCl2, 1 EGTA, 5 HEPES,
0.4 GTP (Na+ salt), 5 ATP (Na+ salt), 5 creatine phosphate, 0.4 CaCl2 (pH 7.3 with KOH).
4.3.1. Source and Maintenance of hERG Transfected Cells
HEK 293 cells stably transfected with hERG cDNA, supplied by bSys GmbH Switzerland,
continuously maintained and passaged in sterile culture flasks containing a mixture of
Dulbecco’s modified Eagle’s medium and nutrient mixture F-12 supplemented with 10%
foetal bovine serum, 0.9% Penicillin/Streptomycin solution, Hygromycin B and Blasticidin.
HEK 293 cells were passaged at a confluence of about 80%. For electrophysiology studies,
the cells were seeded in Petri dishes (35x10 mm), with culture medium containing
tetracycline to activate channel expression, at a density that enables isolated cells to be
selected for patch-clamping. The dishes were stored in a humidified, gassed (5% CO2)
Petri dishes containing the cells to be used for electrophysiological studies were mounted on
the stage of an inverted microscope and were superfused with Tyrode solution. Membrane
currents were recorded (Axopatch 200B, Axon Instruments) in the whole cell configuration
by using suction pipettes (Harvard apparatus, 1.5 mm o.d. x 0.86 mm i.d.) with tip resistance
in the range of 2.5-3.5 MΩ. Gigaohm seals were formed between the patch electrodes and
individual cells. If the quality of the seal was judged to be poor, the electrode was replaced
and the process repeated with a different cell. Once a stable patch was achieved, recording
was commenced in voltage-clamp mode, with the cell initially clamped at –80 mV. Series
resistance and capacitance were compensated to about 70% of their initial value. Cells were
perfused through a microperfusion system allowing for solution changes to occur within
approximately one second. Computer software (pClamp version 8.0; Axon Instruments) was
used to generate voltage clamp protocols, acquire data and analyze current traces. The data
were stored on a computer hard disk for later analysis. Experiments were performed at a
temperature in the recording chamber of 37 ± 1°C, which was maintained with a temperature
Cells stably expressing hERG were held at –80 mV. Onset and steady state block of the
hERG channel current (IKr) due to the test items were monitored using a pulse pattern with
fixed amplitudes (first depolarization: -50 mV for 500 ms; second depolarization: +20 mV
for 2 seconds; hyperpolarization: -50 mV for 7 seconds). This pulse pattern was repeated
every 15 seconds, and current amplitude at the onset of the second step to –50 mV (“peak
tail current”) was monitored until a steady state was obtained. Recordings were acquired at
the sampling interval of 2 kHz and low-pass filtered at 1 kHz. The steady state peak tail
current was monitored and recorded in vehicle solution and then the test item was applied to
the bath solution. At the end the reference item E4031 was applied to block 100% of the
current for determination of the current “leak” response to the stimulation protocol. The
current amplitude was continually monitored through the onset of the voltage step to –50
mV until a new steady state level of current was achieved. Each cell was exposed to a single
test substance concentration.
4.5. Statistical Analysis
For each cell the effect of the test items was ascertained by calculating the residual current as
percentage of control (% control). All data were corrected for “leak” current by subtracting
Each value represents the average current
recorded from 3 sequential voltage pulses. Data from individual cells was collected and the

[2] = Sprague Dawley (Crl:CD (SD)IGS BR), 50 mg/kg/day, Day 28, female
[3] = Sprague Dawley (Crl:CD (SD)IGS BR), 200 mg/kg/day, Day 28, female
[4] = Sprague Dawley (Crl:CD (SD)IGS BR), 200 mg/kg/day, Day 28, male
[5] = Sprague Dawley (Crl:CD (SD)IGS BR), 800 mg/kg/day, Day 28, female (n=2)
[6] = Sprague Dawley (Crl:CD (SD)IGS BR), 800 mg/kg/day, Day 28, male
[7] = Sprague-Dawley (Crl:CD (SD)IGS BR), 50 mg/kg/day, 50 mg/kg/day po, day 1
[8] = Sprague-Dawley (Crl:CD (SD)IGS BR), 50 mg/kg/day, 50 mg/kg/day po, day 14
[9] = Sprague-Dawley (Crl:CD (SD)IGS BR), 200 mg/kg/day, 200 mg/kg/day po, day 1
[10] = both sexes, Sprague-Dawley (Crl:CD (SD)IGS BR), 200 mg/kg/day, 200 mg/kg/day po, day 14
[11] = both sexes, Sprague-Dawley (Crl:CD (SD)IGS BR), 800 mg/kg/day, 800 mg/kg/day po, day 1
[12] = both sexes, Sprague-Dawley (Crl:CD (SD)IGS BR), 800 mg/kg/day, 800 mg/kg/day po, day 14

hERG, sequence (Q12809 whole entry): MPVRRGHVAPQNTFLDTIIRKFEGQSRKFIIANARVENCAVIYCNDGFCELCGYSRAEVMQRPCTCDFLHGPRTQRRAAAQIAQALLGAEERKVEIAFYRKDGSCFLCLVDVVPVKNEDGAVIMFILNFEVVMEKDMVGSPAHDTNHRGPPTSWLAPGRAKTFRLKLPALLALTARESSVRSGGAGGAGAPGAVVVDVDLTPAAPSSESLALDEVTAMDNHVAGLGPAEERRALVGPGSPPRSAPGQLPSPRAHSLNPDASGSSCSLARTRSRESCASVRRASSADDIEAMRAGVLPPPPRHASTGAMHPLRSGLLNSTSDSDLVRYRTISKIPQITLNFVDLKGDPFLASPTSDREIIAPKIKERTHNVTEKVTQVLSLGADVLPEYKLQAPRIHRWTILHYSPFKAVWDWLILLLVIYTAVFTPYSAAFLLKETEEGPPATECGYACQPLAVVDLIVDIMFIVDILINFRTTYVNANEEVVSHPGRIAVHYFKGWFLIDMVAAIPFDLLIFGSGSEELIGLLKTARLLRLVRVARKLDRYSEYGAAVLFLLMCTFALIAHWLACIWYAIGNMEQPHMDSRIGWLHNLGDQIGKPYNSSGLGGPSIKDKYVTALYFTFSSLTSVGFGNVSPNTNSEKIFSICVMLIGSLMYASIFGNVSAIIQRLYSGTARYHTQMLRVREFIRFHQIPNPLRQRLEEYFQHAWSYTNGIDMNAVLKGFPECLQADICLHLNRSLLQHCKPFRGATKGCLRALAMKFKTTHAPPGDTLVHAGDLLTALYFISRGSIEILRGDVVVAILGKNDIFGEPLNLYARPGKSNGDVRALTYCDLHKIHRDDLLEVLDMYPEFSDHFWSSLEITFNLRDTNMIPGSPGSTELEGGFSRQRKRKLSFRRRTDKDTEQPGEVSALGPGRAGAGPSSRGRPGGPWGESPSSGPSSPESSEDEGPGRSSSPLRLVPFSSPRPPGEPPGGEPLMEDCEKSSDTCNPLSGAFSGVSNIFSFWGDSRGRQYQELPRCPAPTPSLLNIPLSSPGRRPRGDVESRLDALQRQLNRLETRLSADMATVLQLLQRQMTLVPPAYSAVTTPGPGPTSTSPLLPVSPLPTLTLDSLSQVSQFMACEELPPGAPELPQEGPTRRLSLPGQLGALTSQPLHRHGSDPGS

## CSc1ccc(OCc2ncc([N+](=O)[O-])n2C)cc1 [Fexinidazole, 1-methyl-2-((p-(methylthio)phenoxy)methyl)-5-nitroimidazole]
[1]; [2]
  AUC: 1450 ± 335 ng·h/mL
  half-life: 5.1 ± 5.1 h
[1]; Sprague Dawley (Crl:CD (SD)IGS BR), 50 mg/kg/day, Day 28, male
  half-life: 4.7 ± 1.2 h
[1]; [3]
  AUC: 4440 ± 514 ng·h/mL
  half-life: 6.3 ± 4.5 h
[1]; [4]
  AUC: 2330 ± 1760 ng·h/mL
  half-life: 8.8 ± 4.8 h
[1]; [5]
  AUC: 7640 ± 1780 ng·h/mL
  half-life: 6.7 ± 2.3 h
[1]; [6]
  AUC: 3170 ± 734 ng·h/mL
  half-life: 11 ± 2.7 h
[1]; [7]
  Cmax: 90 ± 70 ng/mL
  Tmax: 1.42 ± 1.28 h
[1]; Sprague-Dawley (Crl:CD (SD)IGS BR), 50 mg/kg/day, 50 mg/kg/day po, day 1, read-out: AUC0-t(last)
  AUC(0-t): 470 ± 340 ng·h/mL
[1]; [8]
  Cmax: 180 ± 140 ng/mL
  Tmax: 1.92 ± 1.2 h
[1]; Sprague-Dawley (Crl:CD (SD)IGS BR), 50 mg/kg/day, 50 mg/kg/day po, day 14, read-out: AUC0-t(last)
  AUC(0-t): 830 ± 540 ng·h/mL
[1]; [9]
  Cmax: 380 ± 280 ng/mL
  Tmax: 1.92 ± 1.2 h
[1]; both sexes, Sprague-Dawley (Crl:CD (SD)IGS BR), 200 mg/kg/day, 200 mg/kg/day po, day 1, read-out: AUC0-t(last)
  AUC(0-t): 2160 ± 1340 ng·h/mL
[1]; [10]
  Cmax: 520 ± 300 ng/mL
  Tmax: 2.08 ± 1.11 h
[1]; both sexes, Sprague-Dawley (Crl:CD (SD)IGS BR), 200 mg/kg/day, 200 mg/kg/day po, day 14, read-out: AUC0-t(last)
  AUC(0-t): 3020 ± 1470 ng·h/mL
[1]; [11]
  Cmax: 1480 ± 710 ng/mL
  Tmax: 1.58 ± 0.66 h
[1]; both sexes, Sprague-Dawley (Crl:CD (SD)IGS BR), 800 mg/kg/day, 800 mg/kg/day po, day 1, read-out: AUC0-t(last)
  AUC(0-t): 12800 ± 4100 ng·h/mL
[1]; [12]
  Cmax: 1020 ± 870 ng/mL
  Tmax: 3.17 ± 2.84 h
[1]; both sexes, Sprague-Dawley (Crl:CD (SD)IGS BR), 800 mg/kg/day, 800 mg/kg/day po, day 14, read-out: AUC0-t(last)
  AUC(0-t): 9290 ± 5200 ng·h/mL
[1]; female, Sprague Dawley (Crl:CD (SD)IGS BR), 50 mg/kg, Day 1, female
  Cmax: 149 ± 46 ng/mL
[1]; female, Sprague Dawley (Crl:CD (SD)IGS BR), 50 mg/kg, Day 1, female, read-out: AUC0-t(last)
  AUC(0-t): 759 ± 153 ng·h/mL
[1]; female, Sprague Dawley (Crl:CD (SD)IGS BR), 50 mg/kg/day, Day 28, female
  Cmax: 422 ± 358 ng/mL
[1]; female, Sprague Dawley (Crl:CD (SD)IGS BR), 50 mg/kg/day, Day 28, female, read-out: AUC0-t(last)
  AUC(0-t): 1630 ± 570 ng·h/mL
[1]; female, Sprague Dawley (Crl:CD (SD)IGS BR), 200 mg/kg, Day 1, female
  Cmax: 604 ± 211 ng/mL
[1]; female, Sprague Dawley (Crl:CD (SD)IGS BR), 200 mg/kg, Day 1, female, read-out: AUC0-t(last)
  AUC(0-t): 3200 ± 856 ng·h/mL
[1]; female, Sprague Dawley (Crl:CD (SD)IGS BR), 200 mg/kg/day, Day 28, female
  Cmax: 903 ± 87 ng/mL
[1]; female, Sprague Dawley (Crl:CD (SD)IGS BR), 200 mg/kg/day, Day 28, female, read-out: AUC0-t(last)
  AUC(0-t): 4750 ± 508 ng·h/mL
[1]; female, Sprague Dawley (Crl:CD (SD)IGS BR), 800 mg/kg, Day 1, female
  Cmax: 1480 ± 200 ng/mL
[1]; female, Sprague Dawley (Crl:CD (SD)IGS BR), 800 mg/kg, Day 1, female, read-out: AUC0-t(last)
  AUC(0-t): 15700 ± 3610 ng·h/mL
[1]; female, Sprague Dawley (Crl:CD (SD)IGS BR), 800 mg/kg/day, Day 28, female (n=2)
  Cmax: 749 ± 90 ng/mL
[1]; female, Sprague Dawley (Crl:CD (SD)IGS BR), 800 mg/kg/day, Day 28, female (n=2), read-out: AUC0-t(last)
  AUC(0-t): 7940 ± 2210 ng·h/mL
[1]; male, Sprague Dawley (Crl:CD (SD)IGS BR), 50 mg/kg, Day 1, male
  Cmax: 39 ± 17 ng/mL
[1]; male, Sprague Dawley (Crl:CD (SD)IGS BR), 50 mg/kg, Day 1, male, read-out: AUC0-t(last)
  AUC(0-t): 178 ± 99 ng·h/mL
[1]; male, Sprague Dawley (Crl:CD (SD)IGS BR), 50 mg/kg/day, Day 28, male
  Cmax: 133 ± 24 ng/mL
[1]; male, Sprague Dawley (Crl:CD (SD)IGS BR), 50 mg/kg/day, Day 28, male, read-out: AUC0-t(last)
  AUC(0-t): 889 ± 287 ng·h/mL
[1]; male, Sprague Dawley (Crl:CD (SD)IGS BR), 200 mg/kg, Day 1, male
  Cmax: 165 ± 97 ng/mL
[1]; male, Sprague Dawley (Crl:CD (SD)IGS BR), 200 mg/kg, Day 1, male, read-out: AUC0-t(last)
  AUC(0-t): 1120 ± 708 ng·h/mL
[1]; male, Sprague Dawley (Crl:CD (SD)IGS BR), 200 mg/kg/day, Day 28, male
  Cmax: 255 ± 136 ng/mL
[1]; male, Sprague Dawley (Crl:CD (SD)IGS BR), 200 mg/kg/day, Day 28, male, read-out: AUC0-t(last)
  AUC(0-t): 4410 ± 3980 ng·h/mL
[1]; male, Sprague Dawley (Crl:CD (SD)IGS BR), 800 mg/kg, Day 1, male
  Cmax: 1480 ± 1110 ng/mL
[1]; male, Sprague Dawley (Crl:CD (SD)IGS BR), 800 mg/kg, Day 1, male, read-out: AUC0-t(last)
  AUC(0-t): 10000 ± 2160 ng·h/mL
[1]; male, Sprague Dawley (Crl:CD (SD)IGS BR), 800 mg/kg/day, Day 28, male
  Cmax: 523 ± 127 ng/mL
[1]; male, Sprague Dawley (Crl:CD (SD)IGS BR), 800 mg/kg/day, Day 28, male, read-out: AUC0-t(last)
  AUC(0-t): 11900 ± 5360 ng·h/mL
hERG; 1 µM
  Residual Current (% of control): 100.12±4.29%
hERG; 5 µM
  Residual Current (% of control): 94.86±1.06%
hERG; 30 µM
  Residual Current (% of control): 88.97±8.21%
hERG; 1, 5 and 30 µM
  effect on hERG peak tail current: judged not to affect hERG peak tail current
